For the experiment, the target named is T1, Estrogen receptor (Homo sapiens) (UniProt P03372).
T1 sequence (whole entry): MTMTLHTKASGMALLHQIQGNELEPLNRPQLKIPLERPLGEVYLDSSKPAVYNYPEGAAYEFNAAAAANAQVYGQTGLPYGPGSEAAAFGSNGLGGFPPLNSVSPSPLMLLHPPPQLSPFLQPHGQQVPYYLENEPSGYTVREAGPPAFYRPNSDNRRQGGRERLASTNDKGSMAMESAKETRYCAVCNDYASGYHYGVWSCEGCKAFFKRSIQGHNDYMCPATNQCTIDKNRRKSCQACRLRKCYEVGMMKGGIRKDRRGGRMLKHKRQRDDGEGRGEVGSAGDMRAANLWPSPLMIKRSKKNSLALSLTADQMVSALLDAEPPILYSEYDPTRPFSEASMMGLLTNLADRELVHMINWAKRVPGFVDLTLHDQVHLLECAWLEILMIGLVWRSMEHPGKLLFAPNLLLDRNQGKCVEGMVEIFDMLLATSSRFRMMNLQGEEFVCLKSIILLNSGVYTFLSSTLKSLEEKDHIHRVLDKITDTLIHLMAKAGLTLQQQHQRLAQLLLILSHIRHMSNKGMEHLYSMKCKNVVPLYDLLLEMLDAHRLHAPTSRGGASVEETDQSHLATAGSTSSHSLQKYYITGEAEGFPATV
The experiment is described as follows: Induction of estrogen receptor-mediated compound internalization in human MCF-7 cells at 10 umol by fluorescence microscopy. The format is cell-based. As to conditions: MCF7.

Activity calls are given as the source filed them. The rule behind the calls is not given here.

As to `C=CC1=C(C)c2cc3[nH]c(c4c5nc(cc6[nH]c(cc1n2)c(C)c6CC)C(C)=C5C(=O)C4)[C@@H](CCC(=O)OCCC#C[C@]1(O)CC[C@H]2[C@@H]4CCc5cc(O)ccc5[C@H]4CC[C@@]21C)[C@@H]3C`, the outcome was Active.
In the case of `C=CC1=C(C)c2cc3[nH]c(c4c5nc(cc6[nH]c(cc1n2)c(C)c6CC)C(C)=C5C(=O)C4)[C@@H](CCC(=O)O)[C@@H]3C` it was “inactive”.

(Values after ChEMBL document CHEMBL1806405, “Internalization of a C17α-alkynylestradiol-porphyrin conjugate into estrogen receptor positive MCF-7 breast cancer cells” (Bioorg Med Chem Lett, 2011).)
